Source: US7217730B2, “Method for the use of pyranoindole derivatives to treat infection with Hepatitis C virus” (Wyeth, priority 2002, dated 2007)

Key:
[1] = biological target: BB7 (RNA-dependent RNA polymerase hepatitis C virus protein sequence derived from HCV replicon) (Hepatitis C virus genotype 1b, UniProt Q9WMX2); experiment: Hepatitis C polymerase inhibition, BB7 sequence; assay type: biochemical; settings: Table 1B
[2] = biological target: T1, NS5B from the BK strain (genotype 1b) (Hepatitis C virus genotype 1b, UniProt P26663); experiment: Hepatitis C polymerase inhibition, NS5B BK strain, 33P-GTP filter assay; assay type: biochemical; settings: Table 1B; NS5B BK strain; read-out: BK IC50
T1 construct: NS5B from the BK strain (genotype 1b) is expressed in E. coli as a protein in which the 21 C-terminal amino acids are replaced; made in house; host or cells: E. coli
In short: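 E. coli-expressed NS5B (BK, genotype 1b) with the 21 C-terminal residues replaced by a linker-His6 tag was preincubated with compound for 15 min at room temperature. It then extended a hairpin-primed heteropolymeric RNA (~3 nM, ~760 nt product) with α-[33P]-GTP for 2 h at 22–25° C. The reaction was stopped with EDTA, and incorporated label was counted on filters.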

T1 sequence (P26663 2420-2989): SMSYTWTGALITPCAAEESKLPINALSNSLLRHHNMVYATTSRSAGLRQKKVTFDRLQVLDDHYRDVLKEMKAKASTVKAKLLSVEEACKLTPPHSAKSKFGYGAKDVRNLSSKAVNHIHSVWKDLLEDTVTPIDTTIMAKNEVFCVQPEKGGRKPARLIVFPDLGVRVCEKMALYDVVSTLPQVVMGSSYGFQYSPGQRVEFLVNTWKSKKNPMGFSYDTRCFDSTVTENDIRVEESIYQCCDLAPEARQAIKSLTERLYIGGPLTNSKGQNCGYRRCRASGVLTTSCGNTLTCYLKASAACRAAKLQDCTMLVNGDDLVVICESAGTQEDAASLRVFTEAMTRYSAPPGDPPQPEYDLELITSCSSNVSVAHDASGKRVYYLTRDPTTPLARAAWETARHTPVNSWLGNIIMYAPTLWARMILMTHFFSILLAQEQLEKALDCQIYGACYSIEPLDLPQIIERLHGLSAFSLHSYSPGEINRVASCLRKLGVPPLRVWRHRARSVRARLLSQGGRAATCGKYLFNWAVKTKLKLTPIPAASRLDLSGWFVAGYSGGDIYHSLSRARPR
Sequence of BB7 (RNA-dependent RNA polymerase hepatitis C virus protein sequence derived from HCV replicon) (Q9WMX2 2420-3010): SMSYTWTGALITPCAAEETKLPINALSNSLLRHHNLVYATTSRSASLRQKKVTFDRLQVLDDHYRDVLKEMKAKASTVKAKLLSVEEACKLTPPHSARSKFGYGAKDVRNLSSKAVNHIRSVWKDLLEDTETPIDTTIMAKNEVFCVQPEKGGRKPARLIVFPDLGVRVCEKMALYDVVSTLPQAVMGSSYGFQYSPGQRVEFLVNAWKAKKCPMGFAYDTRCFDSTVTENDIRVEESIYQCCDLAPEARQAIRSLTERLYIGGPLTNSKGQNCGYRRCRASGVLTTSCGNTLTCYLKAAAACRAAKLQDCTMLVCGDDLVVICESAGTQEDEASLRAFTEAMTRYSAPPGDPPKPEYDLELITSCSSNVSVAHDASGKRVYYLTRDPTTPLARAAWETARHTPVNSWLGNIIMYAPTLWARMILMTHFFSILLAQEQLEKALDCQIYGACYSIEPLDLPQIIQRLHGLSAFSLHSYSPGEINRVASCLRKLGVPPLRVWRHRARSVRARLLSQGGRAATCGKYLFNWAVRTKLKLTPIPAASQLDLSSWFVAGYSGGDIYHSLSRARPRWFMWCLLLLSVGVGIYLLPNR

Row | SMILES | IC50 [1] [nM] | IC50 [2] [nM]
1 | CCCC1(CC(=O)O)OCCc2c1[nH]c1c(Cl)ccc(C#N)c21 (centres unmarked) [Example 321, (8-chloro-5-cyano-1-propyl-1,3,4,9-tetrahydropyrano[3,4-b]indol-1-yl)acetic acid] | 600 | 300
2 | CCC[C@]1(CC(=O)O)OCCc2c1[nH]c1c(Cl)ccc(C#N)c21 [Example 322, (1R)-(8-chloro-5-cyano-1-propyl-1,3,4,9-tetrahydropyrano[3,4-b]indol-1-yl)acetic acid] | 160 | 40
3 | CCC[C@@]1(CC(=O)O)OCCc2c1[nH]c1c(Cl)ccc(C#N)c21 [Example 323, (1S)-(8-chloro-5-cyano-1-propyl-1,3,4,9-tetrahydropyrano[3,4-b]indol-1-yl)acetic acid] | 11000 | 4900
4 | CC[C@H](C)[C@@]1(CC(=O)O)OCCc2c1[nH]c1c(Cl)ccc(C#N)c21 [Example 325, (1R,10S)-[8-Chloro-5-cyano-1-(1-methylpropyl)-1,3,4,9-tetrahydropyrano[3,4-b]indol-1yl]acetic acid] | 190 | 80
5 | CC[C@H](C)[C@]1(CC(=O)O)OCCc2c1[nH]c1c(Cl)ccc(C#N)c21 [Example 326, (1S,10S)-[8-Chloro-5-cyano-1-(1-methylpropyl)-1,3,4,9-tetrahydropyrano[3,4-b]indol-1-yl]acetic acid] | 9400 | 6500
6 | N#Cc1ccc(Cl)c2[nH]c3c(c12)CCOC3(CC(=O)O)C1CCC1 (centres unmarked) [Example 327, (8-chloro-5-cyano-1-cyclobutyl-1,3,4,9-tetrahydropyrano[3,4-b]indol-1-yl)acetic acid] | 1700 | 800
7 | CCCC1(C(=O)O)OCCc2c1[nH]c1ccc(Cl)c(Cl)c21 (centres unmarked) [Example 328, (5,6-dichloro-1-propyl-1,3,4,9-tetrahydropyrano[3,4-b]indol-1-yl)carboxylic acid] | 3900 | 4300
8 | CCCC1(C(=O)O)OCCc2c1[nH]c1c(Cl)ccc(Cl)c21 (centres unmarked) [Example 329, (5,8-dichloro-1-propyl-1,3,4,9-tetrahydropyrano[3,4-b]indol-1-yl)carboxylic acid] | 1500 | 600
9 | CCCC1(C(=O)O)OCCc2c1[nH]c1c(C)ccc(Cl)c21 (centres unmarked) [Example 330, (5-chloro-8-methyl-1-propyl-1,3,4,9-tetrahydropyrano[3,4-b]indol-1-yl)carboxylic acid] | 8400 | 1600
10 | CCCC1(C(=O)O)OCCc2c1[nH]c1c(Cl)ccc(C(F)(F)F)c21 (centres unmarked) [Example 331, (8-chloro-5-trifluoromethyl-1-propyl-1,3,4,9-tetrahydropyrano[3,4-b]indol-1-yl)carboxylic acid] | 2500 | 500
11 | CCCC1(C(=O)O)OCCc2c1[nH]c1c(F)ccc(C(F)(F)F)c21 (centres unmarked) [Example 332, (8-fluoro-5-trifluoromethyl-1-propyl-1,3,4,9-tetrahydropyrano[3,4-b]indol-1-yl)carboxylic acid] | 14000 | 6400
12 | CCCC1(C(=O)O)OCCc2c1[nH]c1c(C)ccc(C(F)(F)F)c21 (centres unmarked) [Example 333, (5-trifluoromethyl-8-methyl-1-propyl-1,3,4,9-tetrahydropyrano[3,4-b]indol-1-yl)carboxylic acid] | 7600 | 1300
13 | CCCC1(C(=O)O)OCCc2c1[nH]c1c(C)ccc(C#N)c21 (centres unmarked) [Example 334, (5-cyano-8-methyl-1-propyl-1,3,4,9-tetrahydropyrano[3,4-b]indol-1-yl)carboxylic acid] | 5000 | 3000
14 | Cc1ccc(C#N)c2c3c([nH]c12)C(C(=O)O)(C1CCC1)OCC3 (centres unmarked) [Example 338, (5-cyano-1-cyclobutyl-8-methyl-1,3,4,9-tetrahydropyrano[3,4-b]indol-1-yl)carboxylic acid] | 3900 | 3300
15 | CCCC1(C(=O)O)OCCc2c1[nH]c1c(C)cc(F)c(C#N)c21 (centres unmarked) [Example 339, (5-cyano-6-fluoro-8-methyl-1-propyl-1,3,4,9-tetrahydropyrano[3,4-b]indol-1-yl)carboxylic acid] | 2800 | 490
16 | CCCC1(C(=O)O)OCCc2c1[nH]c1c(CC)ccc(C#N)c21 (centres unmarked) [Example 340, (5-cyano-8-ethyl-1-propyl-1,3,4,9-tetrahydropyrano[3,4-b]indol-1-yl)carboxylic acid] | > 28000 | > 30000
17 | CCCC1(C(=O)O)OCCc2c1[nH]c1c(Cl)ccc(C#N)c21 (centres unmarked) [Example 341, (8-chloro-5-cyano-1-propyl-1,3,4,9-tetrahydropyrano[3,4-b]indol-1-yl)carboxylic acid] | 3600 | 1700

Row | SMILES | IC50 [1] [nM] | IC50 [2] [nM]
18 | CCCC1(C(=O)O)OCCc2c1[nH]c1c(F)ccc(C#N)c21 (centres unmarked) [Example 342, (5-cyano-8-fluoro-1-propyl-1,3,4,9-tetrahydropyrano[3,4-b]indol-1-yl)carboxylic acid] | 10000 | 1700
19 | CCC[C@@]1(C(=O)O)OCCc2c1[nH]c1c(F)ccc(C#N)c21 [Example 343, (1R)-(5-cyano-8-fluoro-1-propyl-1,3,4,9-tetrahydropyrano[3,4-b]-indol 1-yl)carboxylic acid] | > 30000 | > 30000
20 | CCCCC1(C(=O)O)OCCc2c1[nH]c1c(F)ccc(C#N)c21 (centres unmarked) [Example 345, (1-butyl-5-cyano-8-fluoro-1,3,4,9-tetrahydropyrano[3,4-b]indol-1-yl)carboxylic acid] | 6200 | 3400
21 | C=CCCC1(C(=O)O)OCCc2c1[nH]c1c(F)ccc(C#N)c21 (centres unmarked) [Example 346, [1-(3-butenyl)-5-cyano-8-fluoro-1,3,4,9-tetrahydropyrano[3,4-b]indol-1-yl]carboxylic acid] | 8000 | 6100
22 | N#Cc1ccc(F)c2[nH]c3c(c12)CCOC3(C(=O)O)C1CCCC1 (centres unmarked) [Example 350, (5-cyano-1-cyclopentyl-8-fluoro-1,3,4,9-tetrahydropyrano[3,4-b]indol-1-yl)carboxylic acid] | > 30000 | > 30000
23 | N#Cc1ccc(F)c2[nH]c3c(c12)CCOC3(C(=O)O)C1CCCCC1 (centres unmarked) [Example 351, (5-cyano-1-cyclohexyl-8-fluoro-1,3,4,9-tetrahydropyrano[3,4-b]indol-1-yl)carboxylic acid] | > 30000 | > 30000
24 | CCCC1(CC(=O)O)OCCc2c1[nH]c1c(C)c(C(=O)O)cc(C#N)c21 (centres unmarked) [Example 353, 1-carboxymethyl-5-cyano-8-methyl-1-propyl-1,3,4,9 tetrahydro-pyrano[3,4-b]indole-7-carboxylic acid] | 810 | 2000
25 | CCCNC(=O)c1cc(C#N)c2c3c([nH]c2c1C)C(CCC)(CC(=O)O)OCC3 (centres unmarked) [Example 354, (5-cyano-8-methyl-1-propyl-7-propylcarbamoyl-1,3,4,9-tetrahydro-pyrano[3,4-b]indol-1-yl)-acetic acid] | 2000 | 3000
26 | CCCC1(CC(=O)O)OCCc2c1[nH]c1c(C)c(C(=O)NC(C)C)cc(C#N)c21 (centres unmarked) [Example 355, (5-cyano-7-isopropylcarbamoyl-8-methyl-1-propyl-1,3,4,9-tetrahydro-pyrano[3,4-b]indol-1-yl)-acetic acid] | 2900 | 5100
27 | CCCC1(CC(=O)O)OCCc2c1[nH]c1c(C)c(C(=O)NC)cc(C#N)c21 (centres unmarked) [Example 357, (5-cyano-8-methyl-7-methylcarbamoyl-1-propyl-1,3,4,9-tetrahydro-pyrano[3,4-b]indol-1-yl)-acetic acid] | 970 | 1300
28 | CCCC1(CC(=O)O)OCCc2c1[nH]c1c(C)c(C(=O)N(C)C)cc(C#N)c21 (centres unmarked) [Example 358, (5-cyano-8-methyl-7-dimethylcarbamoyl-1-propyl-1,3,4,9-tetrahydro-pyrano[3,4-b]indol-1-yl)-acetic acid] | 20000 | 16000
29 | CCCOc1cc(C#N)c2c3c([nH]c2c1C)C(CCC)(CC(=O)O)OCC3 (centres unmarked) [Example 359, (5-cyano-8-methyl-7-propoxy-1-propyl-1,3,4,9-tetrahydro-pyrano[3,4-b]indol-1-yl)-acetic acid] | 70 | 70
30 | CCCOc1cc(C#N)c2c3c([nH]c2c1C)[C@@](CCC)(CC(=O)O)OCC3 [Example 360, (1R)-(5-cyano-8-methyl-7-propoxy-1-propyl-1,3,4,9-tetrahydro-pyrano[3,4-b]indol-1-yl)-acetic acid] | 40 | 90
31 | CCCOc1cc(C#N)c2c3c([nH]c2c1C)[C@](CCC)(CC(=O)O)OCC3 [Example 361, (1S)-(5-cyano-8-methyl-7-propoxy-1-propyl-1,3,4,9-tetrahydro-pyrano[3,4-b]indol-1-yl)-acetic acid] | 770 | 1800
32 | CCCC1(CC(=O)O)OCCc2c1[nH]c1c(C)c(OC)cc(C#N)c21 (centres unmarked) [Example 363, (5-cyano-7-methoxy-8-methyl-1-propyl-1,3,4,9-tetrahydro-pyrano[3,4-b]indol-1-yl)-acetic acid] | 130 | 360
33 | CCCC1(CC(=O)O)OCCc2c1[nH]c1c(C)c(OC(C)C)cc(C#N)c21 (centres unmarked) [Example 364, (5-cyano-7-isopropoxy-8-methyl-1-propyl-1,3,4,9-tetrahydro-pyrano[3,4-b]indol-1-yl)-acetic acid] | 220 | 480
34 | CCCCOc1cc(C#N)c2c3c([nH]c2c1C)C(CCC)(CC(=O)O)OCC3 (centres unmarked) [Example 365, (7-butoxy-5-cyano-8-methyl-1-propyl-1,3,4,9-tetrahydro-pyrano[3,4-b]indol-1-yl)-acetic acid] | 60 | 100
